Measurements taken from patent EP1073639B1, “QUINOLINE DERIVATIVES” (Active Biotech AB, priority 1998, dated 1999).
Marks after values point to notes of the source that are not given here.

Legend:
Type in all cases: in vivo
[1] = system: SJL/N female mice; assay: Acute experimental autoimmune encephalomyelitis (aEAE); conditions: for % aEAE Inhibition: mice
[2] = system: female rats; assay: Teratogenic effects in the rat (embryotoxicity, external malformations); conditions: for % malformed foetuses: rat
[3] = system: DBA/1 male mice; assay: Collagen induced arthritis (type II collagen); conditions: dose 5 mg/kg p.o.; for Mean score day 35: day 35, arthritic score
Protocol: Collagen induced arthritis
DBA/1 male mice between 8 to 10 weeks of age were used for the experiments. On day 0 the mice were immunized intradermally at the base of the tail with bovine type II collagen (100 µg/mouse) in Freund's complete adjuvant. The treatment was given per os daily on days 3 to 7, 10 to 14, 17 to 21, 24 to 28 and 31 to 35. Fifteen days after immunization mice were inspected for signs of arthritis. The animals were inspected three times a week. Every second or third day individual paws of the arthritic animals were scored by a scale from 0-4 (0 = no arthritis, 1 = arthritis in one of the interphalangeal, metatarsophalangeal or intercarpal joints, 2 = two arthritic joints, 3 = three arthritic joints, 4 = as in 3 but with more severe redness and swelling of the paw). The score for each paw was added to give a maximal attainable score of 16 for each mouse.

[4] = system: beagle dogs; assay: Beagle Pain Syndrome (BPS); conditions: result in words
Protocol: Beagle Pain Syndrome (BPS)
The compounds were administrated intravenously to beagle dogs. The dosage was given for five consecutive days. The dogs were evaluated for clinical and laboratory signs of the pain syndrome, e.g., fever, increased erythrocyte sedimentation rate (ESR), […] (AP), induction of acute phase proteins and vasculitis.

[5] = Clearance in dogs; conditions: higher than roquinimex

| SMILES | % aEAE Inhibition ([1]; 0.2 mg/kg p.o.) | % aEAE Inhibition ([1]; 1 mg/kg p.o.) | % aEAE Inhibition ([1]; 5 mg/kg p.o.) | Incidence (%) day 35 [3] | Mean score day 35 [3] | further results |
| --- | --- | --- | --- | --- | --- | --- |
| CCN(C(=O)c1c(O)c2c(OC)cccc2n(C)c1=O)c1ccccc1 [Compound C, N-ethyl-N-phenyl-1,2-dihydro-4-hydroxy-5-methoxy-1-methyl-2-oxo-quinoline-3-carboxamide] | 71% | 73% | 90% |  |  | % aEAE Inhibition ([1]; 0.04 mg/kg p.o.): 48% |
| CCN(C(=O)c1c(O)c2c(Cl)cccc2n(C)c1=O)c1ccccc1 [Compound B, N-ethyl-N-phenyl-1,2-dihydro-4-hydroxy-5-chloro-1-methyl-2-oxo-quinoline-3-carboxamide] | 74% | 98% | 96% |  |  | % aEAE Inhibition ([1]; 0.04 mg/kg p.o.): 60%; % malformed foetuses ([2]; 6 mg/kg, route s.c.): 0^a) %; % malformed foetuses ([2]; 30 mg/kg, route s.c.): 1^a) % |
| CN(C(=O)c1c(O)c2ccccc2n(C)c1=O)c1ccccc1 [Roquinimex, N-methyl-N-phenyl-1,2-dihydro-4-hydroxy-1-methyl-2-oxo-quinoline-3-carboxamide, reference compound] | 35% | 40% | 69% | 50% | 1.7 | inhibition of EAE in mice ([1]; 5 mg/kg, treatment control): 70%; % malformed foetuses ([2]; 10 mg/kg, route p.o.): 9^b) %; % malformed foetuses ([2]; 30 mg/kg, route p.o.): 30^b) %; teratogenic effect in the rat ([2]; result in words): teratogenic; Beagle Pain Syndrome (BPS) [4]: induce the Beagle Pain Syndrome |
| CCN(C(=O)c1c(O)c2ccccc2n(C)c1=O)c1ccccc1 [Compound F, N-ethyl-N-phenyl-1,2-dihydro-4-hydroxy-1-methyl-2-oxo-quinoline-3-carboxamide, reference compound] |  |  | 63% |  |  |  |
| CN(C(=O)c1c(O)c2c(Cl)cccc2n(C)c1=O)c1ccccc1 [Compound G, N-methyl-N-phenyl-1,2-dihydro-4-hydroxy-5-chloro-1-methyl-2-oxo-quinoline-3-carboxamide] |  |  |  |  |  | % malformed foetuses ([2]; 6 mg/kg, route s.c.): 37^a) % |
| CCN(C(=O)c1c(O)c2c3c(ccc2n(C)c1=O)OCO3)c1ccccc1 [E, N-ethyl-N-phenyl-1,2-dihydro-4-hydroxy-5,6-methylenedioxy-1-methyl-2-oxo-quinoline-3-carboxamide] |  |  |  | 10% | 0.1 |  |
| Cn1c(=O)c(C(=O)Nc2ccccc2)c(O)c2ccccc21 [A] |  |  |  |  |  | clearance (Cl) in comparison with roquinimex [5]: 800 fold |
| CCN(C(=O)c1c(O)c2c(Br)cccc2n(C)c1=O)c1ccccc1 [D, N-ethyl-N-phenyl-1,2-dihydro-4-hydroxy-5-bromo-1-methyl-2-oxo-quinoline-3-carboxamide] |  |  |  | 30% | 0.4 |  |
